These are literature values, as cited in patent publication US10543172B2, “Econazole composition and methods of treatment therewith” (PARAGON NORDIC AB, priority 2010, dated 2020).

The data set relates to dermatophytes and yeasts. The note with it: Liao et al., Yao Xue Xue Bao 28(1):22-7 (1993).

Turning to `Clc1ccc(CO[C@@H](Cn2ccnc2)c2ccc(Cl)cc2Cl)cc1` [(R)-(−)-econazole], the “antifungal activity of stereoisomer” value is “greater antifungal activity”.
